From US20090264384A1, “INDOLE, BENZIMIDAZOLE, AND BENZOLACTAM BORONIC ACID COMPOUNDS, ANALOGS THEREOF AND METHODS OF USE THEREOF” (Nuada, Inc., priority 2004, published 2009)

Experiments:
D3(h) = target: T1, D3(h) (Homo sapiens, UniProt P35462); test: D3(h) binding assay; details: 1.0E−05 M; read-out: % Inhibition of Control Specific Binding
T1 construct: expressed in transfected cells; host or cells: CHO cells

H2(h) = target: T2, H2(h) (Homo sapiens, UniProt P25021); test: H2(h) binding assay; details: read-out: % Inhibition of Control Specific Binding
T2 construct: expressed in transfected cells; host or cells: CHO cells
T2 sequence (P25021 whole entry): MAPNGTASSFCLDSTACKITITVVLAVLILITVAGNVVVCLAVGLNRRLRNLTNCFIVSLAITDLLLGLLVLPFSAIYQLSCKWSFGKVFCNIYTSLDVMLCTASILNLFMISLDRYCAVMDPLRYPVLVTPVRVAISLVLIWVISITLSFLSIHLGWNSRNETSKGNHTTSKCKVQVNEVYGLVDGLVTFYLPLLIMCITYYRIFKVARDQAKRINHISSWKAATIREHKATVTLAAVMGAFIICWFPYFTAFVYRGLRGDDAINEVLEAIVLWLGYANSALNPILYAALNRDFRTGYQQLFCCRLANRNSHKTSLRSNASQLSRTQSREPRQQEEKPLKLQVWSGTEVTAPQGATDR

NK1(h) = target: T3, NK1(h) (Homo sapiens, UniProt P25103); test: NK1(h) binding assay; details: read-out: % Inhibition of Control Specific Binding
T3 construct: NK1(h); U-373MG cells; [Sar^9,Met(O2)^11]-SP; Heuillet et al. (1993); endogenous in cells; host or cells: U-373MG cells
T3 sequence (P25103 whole entry): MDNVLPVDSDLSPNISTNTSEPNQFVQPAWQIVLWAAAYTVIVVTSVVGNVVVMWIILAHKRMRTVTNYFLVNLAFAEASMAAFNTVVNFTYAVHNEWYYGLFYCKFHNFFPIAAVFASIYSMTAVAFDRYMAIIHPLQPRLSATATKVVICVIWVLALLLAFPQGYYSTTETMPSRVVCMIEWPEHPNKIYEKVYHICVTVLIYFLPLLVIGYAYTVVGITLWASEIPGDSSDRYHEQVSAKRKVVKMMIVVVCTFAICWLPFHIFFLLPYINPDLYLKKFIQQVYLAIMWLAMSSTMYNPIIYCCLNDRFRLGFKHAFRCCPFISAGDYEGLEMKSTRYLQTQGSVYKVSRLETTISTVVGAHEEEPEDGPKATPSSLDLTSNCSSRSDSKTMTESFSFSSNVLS

A3(h) = target: T4, A3(h) (Homo sapiens, UniProt P0DMS8); test: A3(h) binding assay; details: read-out: % Inhibition of Control Specific Binding
T4 construct: expressed in transfected cells; host or cells: HEK-293 cells
T4 sequence (P0DMS8 whole entry): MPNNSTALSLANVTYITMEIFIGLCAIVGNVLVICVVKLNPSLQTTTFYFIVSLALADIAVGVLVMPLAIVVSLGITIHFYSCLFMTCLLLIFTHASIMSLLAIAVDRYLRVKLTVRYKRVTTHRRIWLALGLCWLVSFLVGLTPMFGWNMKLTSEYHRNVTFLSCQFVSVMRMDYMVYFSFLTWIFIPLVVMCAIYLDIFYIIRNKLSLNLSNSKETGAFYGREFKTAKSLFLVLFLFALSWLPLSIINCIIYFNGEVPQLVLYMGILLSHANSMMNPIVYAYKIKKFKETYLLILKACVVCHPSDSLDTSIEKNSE

[1] = target: Ca^2+ channel (L, diltiazem site) (benzothiazepines) (Rattus norvegicus, UniProt P22002); test: Ca^2+ channel (L, diltiazem site) binding assay; details: read-out: % Inhibition of Control Specific Binding
5-HT (non-selective) = 5-HT (non-selective) binding assay; set-up: species or system rat; details: 1.0E−05 M
TRH = TRH binding assay; set-up: species or system rat; details: 1.0E−05 M
P2X = P2X binding assay; set-up: species or system rat; details: 1.0E−05 M
Y (non-selective) = Y (non-selective) binding assay; set-up: species or system rat; details: 1.0E−05 M
CRF1 = target: T5, CRF1 (Rattus norvegicus, UniProt P35353); test: CRF1 binding assay; details: read-out: % Inhibition of Control Specific Binding
T5 construct: from tissue; host or cells: rat pituitary gland
T5 sequence (P35353 24-415): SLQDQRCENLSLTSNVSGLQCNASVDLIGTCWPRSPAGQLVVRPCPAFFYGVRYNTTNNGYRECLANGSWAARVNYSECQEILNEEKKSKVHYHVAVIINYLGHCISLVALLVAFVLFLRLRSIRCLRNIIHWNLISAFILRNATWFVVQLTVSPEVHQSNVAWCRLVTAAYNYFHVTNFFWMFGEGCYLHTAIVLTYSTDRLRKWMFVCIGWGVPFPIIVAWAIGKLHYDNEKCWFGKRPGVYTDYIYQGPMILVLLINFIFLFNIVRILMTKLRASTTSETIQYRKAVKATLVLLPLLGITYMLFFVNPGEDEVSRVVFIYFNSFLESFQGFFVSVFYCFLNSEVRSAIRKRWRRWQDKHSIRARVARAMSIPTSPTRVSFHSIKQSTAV

PCP = PCP binding assay; set-up: species or system rat; details: 1.0E−05 M
σ (non-selective) = σ (non-selective) binding assay; set-up: species or system rat; details: 1.0E−05 M
Kainate = Kainate binding assay; set-up: species or system rat; details: 1.0E−05 M
[2] = target: Ca^2+ channel (L, DHP site) (Rattus norvegicus, UniProt P22002); test: Ca^2+ channel (L, DHP site) binding assay; details: read-out: % Inhibition of Control Specific Binding
Phosphodiesterase 2(h) = target: T6, Phosphodiesterase 2(h) (Homo sapiens, UniProt O00408); test: Phosphodiesterase 2(h) enzyme assay; assay type: biochemical; details: 1.0E−05 M
T6 construct: differentiated U-; endogenous in cells; host or cells: differentiated U-937 cells

Adenylyl cyclase (basal) = Adenylyl cyclase (basal) enzyme assay; assay type: biochemical, rat; details: 1.0E−05 M
I2 (central) = I2 (central) binding assay; set-up: species or system rat; details: 1.0E−05 M
β2(h) = target: T7, β2(h) (Homo sapiens, UniProt P07550); test: β2(h) binding assay; details: read-out: % Inhibition of Control Specific Binding
T7 construct: expressed in transfected cells; host or cells: Sf9 cells
T7 sequence (P07550 whole entry): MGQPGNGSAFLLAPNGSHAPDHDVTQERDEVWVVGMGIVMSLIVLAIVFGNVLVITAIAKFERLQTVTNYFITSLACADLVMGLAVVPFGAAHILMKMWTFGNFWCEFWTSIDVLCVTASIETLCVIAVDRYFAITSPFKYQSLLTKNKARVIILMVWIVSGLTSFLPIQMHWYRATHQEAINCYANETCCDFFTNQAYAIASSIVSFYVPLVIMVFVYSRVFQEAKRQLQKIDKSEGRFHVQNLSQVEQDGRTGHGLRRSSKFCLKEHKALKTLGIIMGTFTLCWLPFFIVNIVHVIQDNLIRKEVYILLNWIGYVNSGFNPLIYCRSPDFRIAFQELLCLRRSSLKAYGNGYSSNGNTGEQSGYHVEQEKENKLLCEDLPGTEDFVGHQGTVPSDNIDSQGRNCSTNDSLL

CCKB(h) (CCK2) = target: T8, CCKB(h) (CCK2) (Homo sapiens, UniProt P32239); test: CCKB(h) (CCK2) binding assay; details: read-out: % Inhibition of Control Specific Binding
T8 construct: expressed in transfected cells; host or cells: HEK-293 cells
T8 sequence (P32239 whole entry): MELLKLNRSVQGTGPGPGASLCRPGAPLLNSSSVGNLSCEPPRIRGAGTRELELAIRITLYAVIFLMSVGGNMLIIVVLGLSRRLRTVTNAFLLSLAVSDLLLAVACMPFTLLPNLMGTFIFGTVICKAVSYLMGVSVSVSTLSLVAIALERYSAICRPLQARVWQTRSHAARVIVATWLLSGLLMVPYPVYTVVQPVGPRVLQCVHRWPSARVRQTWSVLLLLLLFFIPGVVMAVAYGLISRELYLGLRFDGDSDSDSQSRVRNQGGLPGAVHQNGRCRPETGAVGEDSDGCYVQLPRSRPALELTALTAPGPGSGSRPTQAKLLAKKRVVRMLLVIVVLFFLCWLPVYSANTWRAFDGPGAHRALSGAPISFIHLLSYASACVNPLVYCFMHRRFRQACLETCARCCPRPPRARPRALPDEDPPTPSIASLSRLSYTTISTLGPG

Phosphodiesterase 4(h) = Phosphodiesterase 4(h) enzyme assay; assay type: biochemical, human; details: 1.0E−05 M
MAO-A(h) = target: T9, MAO-A(h) (Homo sapiens, UniProt P21397); test: MAO-A(h) enzyme assay; assay type: biochemical; details: 1.0E−05 M
T9 construct: human placenta; from tissue; host or cells: human placenta
T9 sequence (P21397 whole entry): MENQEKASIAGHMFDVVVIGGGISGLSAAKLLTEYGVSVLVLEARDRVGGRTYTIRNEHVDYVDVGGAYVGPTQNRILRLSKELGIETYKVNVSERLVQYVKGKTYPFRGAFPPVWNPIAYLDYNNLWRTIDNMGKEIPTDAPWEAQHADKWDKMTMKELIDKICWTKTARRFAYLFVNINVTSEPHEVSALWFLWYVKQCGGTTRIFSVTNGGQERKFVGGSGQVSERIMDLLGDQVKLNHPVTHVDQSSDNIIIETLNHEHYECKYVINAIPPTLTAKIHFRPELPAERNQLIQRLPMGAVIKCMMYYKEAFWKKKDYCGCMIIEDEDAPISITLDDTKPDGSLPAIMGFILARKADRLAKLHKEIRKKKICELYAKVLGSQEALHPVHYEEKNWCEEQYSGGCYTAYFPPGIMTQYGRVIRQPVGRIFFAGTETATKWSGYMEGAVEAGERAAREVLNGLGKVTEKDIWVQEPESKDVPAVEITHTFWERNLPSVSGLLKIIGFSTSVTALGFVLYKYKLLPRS

GABA transporter = GABA transporter (Rattus norvegicus, UniProt P23978); test: GABA transporter binding assay; details: 1.0E−05 M; read-out: % Inhibition of Control Specific Binding
ATPase (Na^+/K^+) = target: T10, ATPase (Na^+/K^+) (Canis lupus familiaris, UniProt P50997); test: ATPase (Na^+/K^+) enzyme assay; assay type: biochemical, dog; details: 1.0E−05 M
T10 construct: dog kidney; from tissue; host or cells: dog kidney

D2S(h) = target: T11, D2S(h) (Homo sapiens, UniProt P14416); test: biochemical; assay type: binding; details: 1.0E−05 M; read-out: % Inhibition of Control Specific Binding
T11 construct: expressed in transfected cells; host or cells: CHO cells
T11 sequence (P14416 1-414 isoform P14416-2): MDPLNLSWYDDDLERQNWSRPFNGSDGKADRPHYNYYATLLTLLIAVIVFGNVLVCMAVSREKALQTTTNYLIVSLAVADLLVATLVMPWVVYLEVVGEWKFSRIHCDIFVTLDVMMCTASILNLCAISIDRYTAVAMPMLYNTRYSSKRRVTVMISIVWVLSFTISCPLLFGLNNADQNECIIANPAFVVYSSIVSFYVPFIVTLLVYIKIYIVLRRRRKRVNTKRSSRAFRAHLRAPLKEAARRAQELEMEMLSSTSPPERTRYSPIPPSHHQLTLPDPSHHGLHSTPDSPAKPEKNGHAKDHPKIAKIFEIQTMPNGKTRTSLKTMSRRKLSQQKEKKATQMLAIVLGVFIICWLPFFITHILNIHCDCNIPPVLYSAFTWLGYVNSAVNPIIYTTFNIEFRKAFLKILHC

B1(h) = target: T12, B1(h) (Homo sapiens, UniProt P46663); test: B1(h) binding assay; details: 1.0E−05 M; read-out: % Inhibition of Control Specific Binding
T12 construct: expressed in transfected cells; host or cells: CHO cells
T12 sequence (P46663 whole entry): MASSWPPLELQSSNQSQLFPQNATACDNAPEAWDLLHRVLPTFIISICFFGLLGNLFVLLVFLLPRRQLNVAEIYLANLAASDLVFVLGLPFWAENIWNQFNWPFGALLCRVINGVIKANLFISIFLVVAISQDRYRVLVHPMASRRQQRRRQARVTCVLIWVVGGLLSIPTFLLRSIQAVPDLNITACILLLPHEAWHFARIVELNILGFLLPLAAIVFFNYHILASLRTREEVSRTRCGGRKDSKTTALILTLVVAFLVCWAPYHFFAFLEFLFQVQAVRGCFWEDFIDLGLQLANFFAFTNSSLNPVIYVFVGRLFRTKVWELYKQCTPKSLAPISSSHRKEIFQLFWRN

[3] = tested on: Catechol-O-methyl transferase; test: Catechol-O-methyl transferase enzyme assay; assay type: biochemical, porcine; details: 1.0E−05 M
CB2(h) = target: T13, CB2(h) (Homo sapiens, UniProt P34972); test: CB2(h) binding assay; details: 1.0E−05 M; read-out: % Inhibition of Control Specific Binding
T13 construct: expressed in transfected cells; host or cells: HEK-293 cells

MC4(h) = target: T14, MC4(h) (Homo sapiens, UniProt P32245); test: MC4(h) binding assay; details: 1.0E−05 M; read-out: % Inhibition of Control Specific Binding
T14 construct: expressed in transfected cells; host or cells: HEK-293 cells
T14 sequence (P32245 whole entry): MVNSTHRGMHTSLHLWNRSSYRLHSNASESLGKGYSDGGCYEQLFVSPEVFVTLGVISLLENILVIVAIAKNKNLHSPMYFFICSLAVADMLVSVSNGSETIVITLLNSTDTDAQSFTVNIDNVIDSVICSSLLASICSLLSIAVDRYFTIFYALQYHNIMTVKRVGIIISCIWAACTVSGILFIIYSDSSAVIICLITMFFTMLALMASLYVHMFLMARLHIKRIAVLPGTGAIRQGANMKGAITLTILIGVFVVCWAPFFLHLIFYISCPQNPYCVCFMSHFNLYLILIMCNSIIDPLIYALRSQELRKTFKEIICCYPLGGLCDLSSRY

LTD4(h) = target: T15, LTD4(h) (Homo sapiens, UniProt Q9Y271); test: LTD4(h) binding assay; details: read-out: % Inhibition of Control Specific Binding
T15 construct: LTD4(h); U-937 cells; LTD4; Frey et al. (1993); endogenous in cells; host or cells: U-937 cells

Phosphodiesterase 5(h) = target: T16, Phosphodiesterase 5(h) (Homo sapiens, UniProt O76074); test: Phosphodiesterase 5(h) enzyme assay; assay type: biochemical; details: 1.0E−05 M
T16 construct: human platelets; from tissue; host or cells: human platelets

Androgen(h) (AR) = target: T17, Androgen(h) (AR) (Homo sapiens, UniProt P10275, T878A); test: Androgen(h) (AR) binding assay; details: 1.0E−05 M; read-out: % Inhibition of Control Specific Binding
T17 construct: LNCaP cells; endogenous in cells; host or cells: LNCaP cells (cytosol)
T17 sequence (P10275 whole entry T878A): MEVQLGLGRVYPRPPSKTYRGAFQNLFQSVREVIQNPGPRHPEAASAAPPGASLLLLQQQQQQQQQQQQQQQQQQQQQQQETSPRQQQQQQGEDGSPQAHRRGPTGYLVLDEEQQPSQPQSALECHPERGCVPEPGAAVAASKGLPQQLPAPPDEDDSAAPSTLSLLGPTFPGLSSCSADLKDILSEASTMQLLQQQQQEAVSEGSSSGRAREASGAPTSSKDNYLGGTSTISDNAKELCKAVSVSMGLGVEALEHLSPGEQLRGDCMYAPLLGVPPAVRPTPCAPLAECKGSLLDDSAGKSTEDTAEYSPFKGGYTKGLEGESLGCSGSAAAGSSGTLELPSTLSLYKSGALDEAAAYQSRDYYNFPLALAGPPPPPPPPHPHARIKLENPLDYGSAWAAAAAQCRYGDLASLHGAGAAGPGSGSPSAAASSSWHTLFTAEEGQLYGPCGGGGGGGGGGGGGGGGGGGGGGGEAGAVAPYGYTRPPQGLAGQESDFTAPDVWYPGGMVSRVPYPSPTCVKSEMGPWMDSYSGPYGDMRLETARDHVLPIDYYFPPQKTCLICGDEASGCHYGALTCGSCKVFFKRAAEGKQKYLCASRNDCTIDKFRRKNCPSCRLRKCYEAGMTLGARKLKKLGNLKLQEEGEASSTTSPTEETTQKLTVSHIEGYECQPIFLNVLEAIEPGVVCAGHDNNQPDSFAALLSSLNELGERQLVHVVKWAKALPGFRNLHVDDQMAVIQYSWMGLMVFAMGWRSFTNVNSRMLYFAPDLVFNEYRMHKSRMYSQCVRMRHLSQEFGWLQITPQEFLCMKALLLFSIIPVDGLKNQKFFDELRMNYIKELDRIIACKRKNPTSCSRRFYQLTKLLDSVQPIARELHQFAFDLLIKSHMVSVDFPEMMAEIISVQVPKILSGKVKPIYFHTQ

V2(h) = target: T18, V2(h) (Homo sapiens, UniProt P30518); test: V2(h) binding assay; details: 1.0E−05 M; read-out: % Inhibition of Control Specific Binding
T18 construct: expressed in transfected cells; host or cells: CHO cells

Acetylcholinesterase(h) = target: T19, Acetylcholinesterase(h) (Homo sapiens, UniProt P22303); test: Acetylcholinesterase(h) enzyme assay; assay type: biochemical; details: 1.0E−05 M
T19 construct: host or cells: HEK-293 cells

α2 (non-selective) = α2 (non-selective) binding assay; set-up: species or system rat; details: 1.0E−05 M
A2A(h) = target: T20, A2A(h) (Homo sapiens, UniProt P29274); test: A2A(h) binding assay; details: 1.0E−05 M
T20 construct: expressed in transfected cells; host or cells: HEK-293 cells

N#Cc1ccc2c(ccn2CCCCCB(O)O)c1 [Example 20, 5-(5-cyano-1H-indol-1-yl)pentylboronic acid] showed an inhibition at 10 µM (D3(h)) of 4%, an inhibition at 10 µM (H2(h)) of 15% and an inhibition at 10 µM (NK1(h)) of 12%. The inhibition at 10 µM (A3(h)) was -12%, the inhibition at 10 µM [1] was -1% and the “% Inhibition of Control Specific Binding” value (5-HT (non-selective)) was −1%. For the same molecule, the “% Inhibition of Control Specific Binding” value (TRH) was −17%, the “% Inhibition of Control Specific Binding” value (P2X) was 14% and the “% Inhibition of Control Specific Binding” value (Y (non-selective)) was 14%. The inhibition at 10 µM (CRF1) was -23%, the “% Inhibition of Control Specific Binding” value (PCP) was 5% and the “% Inhibition of Control Specific Binding” value (σ (non-selective)) was 5%. For the same molecule, the “% Inhibition of Control Specific Binding” value (Kainate) was −6%, the inhibition at 10 µM [2] was -10% and the “% Inhibition of Control Values” (Phosphodiesterase 2(h)) was 95%. The “% Stimulation Relative to Control” value (Adenylyl cyclase (basal)) was −3%, the “% Inhibition of Control Specific Binding” value (I2 (central)) was 1% and the inhibition at 10 µM (β2(h)) was 5%. For the same molecule, the inhibition at 10 µM (CCKB(h) (CCK2)) was 5%, the “% Inhibition of Control Values” (Phosphodiesterase 4(h)) was 91% and the “% Inhibition of Control Values” (MAO-A(h)) was 6%. For the same molecule, the inhibition at 10 µM (GABA transporter) was -13%, the “% Inhibition of Control Values” (ATPase (Na^+/K^+)) was 8% and the inhibition at 10 µM (D2S(h)) was 23%. For the same molecule, the inhibition at 10 µM (B1(h)) was -5%, the “% Inhibition of Control Values” [3] was −5% and the inhibition at 10 µM (CB2(h)) was -12%. For the same molecule, the inhibition at 10 µM (MC4(h)) was 2%, the inhibition at 10 µM (LTD4(h)) was 12% and the “% Inhibition of Control Values” (Phosphodiesterase 5(h)) was 94%. For the same molecule, the inhibition at 10 µM (Androgen(h) (AR)) was 40%, the inhibition at 10 µM (V2(h)) was 5% and the “% Inhibition of Control Values” (Acetylcholinesterase(h)) was 11%. The “% Inhibition of Control Specific Binding” value (α2 (non-selective)) was 7% and the “% Inhibition of Control Specific Binding” value (A2A(h)) was 16%.
